Molecular target: T1, calpain I (human μ-calpain) (Homo sapiens, UniProt P07384)
T1 construct: Human μ-calpain is isolated from erythrocytes; from tissue; host or cells: human erythrocytes
T1 sequence (P07384 1-714): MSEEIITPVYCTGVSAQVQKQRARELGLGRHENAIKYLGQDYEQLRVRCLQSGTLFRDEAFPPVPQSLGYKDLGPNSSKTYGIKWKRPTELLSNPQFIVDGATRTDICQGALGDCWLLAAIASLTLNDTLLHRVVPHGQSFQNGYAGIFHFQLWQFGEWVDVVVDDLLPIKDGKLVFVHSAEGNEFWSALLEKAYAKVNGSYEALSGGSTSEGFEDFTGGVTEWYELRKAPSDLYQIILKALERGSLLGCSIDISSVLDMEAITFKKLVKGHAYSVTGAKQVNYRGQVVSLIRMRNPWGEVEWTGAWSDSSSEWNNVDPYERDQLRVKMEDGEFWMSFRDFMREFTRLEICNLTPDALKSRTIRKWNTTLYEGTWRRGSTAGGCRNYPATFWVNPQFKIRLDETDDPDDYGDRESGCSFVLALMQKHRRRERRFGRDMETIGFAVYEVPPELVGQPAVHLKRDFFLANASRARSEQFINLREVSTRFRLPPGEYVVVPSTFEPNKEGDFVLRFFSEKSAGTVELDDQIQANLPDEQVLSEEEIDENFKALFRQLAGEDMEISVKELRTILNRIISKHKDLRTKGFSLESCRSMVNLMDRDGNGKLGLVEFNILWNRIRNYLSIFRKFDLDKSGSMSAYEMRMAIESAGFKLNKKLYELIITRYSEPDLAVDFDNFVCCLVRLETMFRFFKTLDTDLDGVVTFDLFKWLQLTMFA
T1 sequence (P04632 1-268 partner): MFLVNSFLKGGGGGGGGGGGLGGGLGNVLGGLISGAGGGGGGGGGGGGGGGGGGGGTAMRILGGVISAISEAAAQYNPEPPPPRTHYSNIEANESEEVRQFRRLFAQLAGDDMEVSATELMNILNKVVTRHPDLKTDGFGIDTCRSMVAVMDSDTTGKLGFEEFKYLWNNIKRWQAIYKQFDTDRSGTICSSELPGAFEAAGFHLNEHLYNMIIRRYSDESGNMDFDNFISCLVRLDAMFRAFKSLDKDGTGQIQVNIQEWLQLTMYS
Experiment: Calpain I and II assay (fluorogenic substrate Suc-Leu-Tyr-AMC)
Format: biochemical
Protocol: The inhibitory effect of the benzamides I has been determined using enzyme assays known from the literature, determining as criterion of effect a concentration of the inhibitor at which 50% of the enzyme activity is inhibited (=IC50). The amides I were measured in this way for their inhibitory effect on calpain I, calpain II and cathepsin B.
The testing of the inhibitory properties of calpain inhibitors takes place in buffer with 50 mM tris-HCl, pH 7.5; 0.1 M NaCl; 1 mM dithiotreithol [sic]; 0.11 mM CaCl2, using the fluorogenic calpain substrate Suc-Leu-Tyr-AMC (25 mM dissolved in DMSO, Bachem/switzerland). Human μ-calpain is isolated from erythrocytes, and enzyme with a purity >95%, assessed by SDS-PAGE, Western blot analysis and N-terminal sequencing, is obtained after more [sic] chromatographic steps (DEAE-Sepharose, phenyl-Sepharose, Superdex 200 and blue Sepharose). The fluorescence of the cleavage product 7-amino-4-methylcoumarin (AMC) is followed in a Spex Fluorolog fluorimeter at λex=380 nm and λem =460 nm. […]
In a test mixture, 10 μl of substrate (250 μM final) and then 10 μl of μ-calpain (2 μg/ml final, i.e. 18 nM) are added to a 1 ml cuvette containing buffer. The calpain-mediated cleavage of the substrate is measured for from 15 to 20 min. […] Ki values are determined using the classical equation for reversible inhibition: […]

inhibition at 1 µM (at a concentration of 1 μM): > 50%
Ki (calpain I, inferred from more than 50% inhibition at 1 μM): < 1 µM
SMILES: O=C(N[C@@H](Cc1ccccc1)C(=O)CNS(=O)(=O)c1ccccc1)c1cccc(NS(=O)(=O)c2ccc3ccccc3c2)c1 [Example 1, 3(2-Naphthylsulfonamido)-N(3(S)-4-phenyl-1-phenylsulfonamidobutan-2-on-3-yl)benzamide]
